Experimental findings from patent EP1501797B1, “3-(SUBSTITUTED AMINO)-1H-INDOLE-2-CARBOXYLIC ACID ESTER AND 3-(SUBSTITUTED AMINO)-BENZO[B]THIOPHENE-2-CARBOXYLIC ACID ESTER DERIVATIVES AS INTERLEUKIN-4 GENE EXPRESSION INHIBITORS” (Aventis Pharmaceuticals Inc., priority 2002, dated 2003) are described below.

In one test the test system is IFN-γ. Nature of the test: Human primary Th2 cells, anti-CD3/anti-CD28 activated, IFN-γ ELISA. In kind it is cell-based. As for the experimental part: Briefly, CD4^+CD45RA^+ T cells, isolated from donor peripheral blood mononuclear cells of healthy donors, are educated in the presence of anti-CD3/CD28 antibodies and various growth factors to obtain either a Thl-like or Th2-like phenotypes as determined by the known cytokine profiles of these two cell types.
Peripheral blood mononuclear cells (PBMC) are prepared from human blood by Ficoll-Hypacque (Pharmacia). The cells are washed two times in Hanks balanced salt solution (HBSS) and counted.
Naive T cells (CD4^+/CD45RA ) are prepared by negative selection method using following antibodies and Dynabeads: anti-CD8, anti-HLA-DR, (where HLA means human leucocyte antigen) anti-CD14, anti-CD16, anti-CD19, anti-CD45RO antibodies (all from R&D Systems, 1-2 µg/ml) are added to the cells, and the cells are kept on ice for 30 min. The cells are washed two times in HBSS, and goat anti- mouse Ig-beads, (bead:target ratio, 5:1) are added. The cells and beads are slowly rotated at 4°C for 20 min. (following the protocol supplied from Dynal). The supernatant is removed and fresh goat anti-mouse Ig-beads are added to the supernatant, which is slowly rotated at 4°C for 20 min. The cells are counted and phenotypically characterized by flow cytometric analysis.
CD4^+/CD45RA^+ cells at a density of 10^6/ml in RPMI, is prepared and added to RPMI medium containing 10% Hyclone serum/ glutamine and 1-2 µg/ml anti-CD28 Ab. The cells are split in two aliquots. For Th1 cells: anti-IL-4 Ab (1-2 µg/ml), IFN-γ (1 µg/ml, or 5000 units/ml) are added to the wells. For Th2 cells: IL-4 (100-200 ng/ml), anti-IFN-γ neutralizing Ab (1-2 µg/ml), anti-IL-12 neutralizing Ab (1-2 µg/ml) are added into the wells. […] The cells are transferred to fresh wells and grown in 200 units/ml IL-2 for 2 weeks by feeding them every other day with IL-2 containing medium and splitting the cultures 1:2 or 1:3 as needed. The degree of polarization is determined by intracellular staining of cells with anti-IFN-γ and anti-IL-4 antibodies from Pharmingen, and using flow cytometry from Becton Dickinson (BD), according to manufacturers description. The cells are stimulated with PHA and alloantigens at day 14 and 28 as described below. Eight days after the second allostimulation the cells can be used for compound screening or frozen for future use. For compound testing, large quantities of Th1 and Th2 cells derived from a given donor (NYTh1 and NYTh2) were expanded and frozen as aliquots in liquid nitrogen. The cells are thawed and cultured as and when needed. The thawed cells are stimulated with alloantigen/PHA combination. The cells are used for compound screening after 8-10 days in culture.
Re-stimulation by allogeneic cells: Human PBMCs, to be used as alloantigens, are isolated from freshly drawn blood by Ficoll separation. […] Cells are counted and diluted to a final concentration of 2 x 10^6/ml in medium containing 10 µg/ml PHA and 200 units/ml IL-2.
Ninetysix well Falcon tissue culture plates (Fisher Scientific) are coated with 100 microliters per well of 10 µg/ml anti-CD3 (PharMingen) antibody in phosphate buffered saline (PBS) and stored at 4°C one day before the experiment.
On the day of assay, anti-CD3 antibody coated plates are washed with PBS once to remove all soluble anti-CD3 antibody. […] All compounds and controls are assayed in triplicates.

For another test, the system named is Anti-OVA IgE. Nature of the test: OVA induced allergen specific IgE in mice. In kind it is in vivo. To be noted: bled at day 15, vehicle 150.8. As for the experimental part:
Female mice (5-8 week age, Balb/c, Charles River) were used in this study. Ovalbumin (Sigma) was adsorbed to Aluminum Hydroxide Adsorptive Gel, Inter, and injected 10 µg/0.2ml/mouse intraperitoneally on experimental day 0 and day 7. […] They were bled at day 15. Serum ovalbumin specific IgE levels were determined by standard ELISA using a goat anti-mouse IgE antibody labeled with alkaline phosphatase. The anti-OVA titers were determined by making serial dilutions of the test sera and comparing with vehicle control.

Bounds are passed on as bounds.

For `O=C(O)c1[nH]c2ccccc2c1Nc1ccncc1` [Example 28, 3-(4-Pyridinylamino)-1H-indole-2-carboxylic acid], the activity at 0.01 µM in the test on IFN-γ (Homo sapiens, 0.01 µM, 48 hr, read-out: IFN-γ (% control) mean) came out at 96.9%. Moreover, in the test with IFN-γ (Homo sapiens, 0.03 µM, 48 hr, read-out: IFN-γ (% control) mean), the activity at 0.03 µM worked out at 91.6%. Besides, the activity at 0.1 µM with IFN-γ (Homo sapiens, 0.1 µM, 48 hr, read-out: IFN-γ (% control) mean) turned out to be 91.8%. In addition, the activity at 0.3 µM with IFN-γ (Homo sapiens, 0.3 µM, 48 hr, read-out: IFN-γ (% control) mean) came out at 92.1%. In the test on IFN-γ (Homo sapiens, 1 µM, 48 hr, read-out: IFN-γ (% control) mean), the activity at 1 µM is 89.2%. The activity at 3 µM with IFN-γ (Homo sapiens, 3 µM, 48 hr, read-out: IFN-γ (% control) mean) stood at 83.5%. Besides, the activity at 10 µM with IFN-γ (Homo sapiens, 10 µM, 48 hr, read-out: IFN-γ (% control) mean) came out at 75%. Further, the half-inhibitory concentration (IC50) in the test with IFN-γ (Human primary Th2 cells, combined data from 10 different experiments) is over 10 µM. Also, the “Anti-OVA IgE” value turned out to be 41.8 in the test on Anti-OVA IgE (3 mg/kg intraperitoneally once a day from day 6 to day 14) and 45.6 with Anti-OVA IgE (10 mg/kg intraperitoneally once a day from day 6 to day 14).

In general, IC50 refers to the concentration that gives 50% inhibition.
